Test results reported in patent US20070037202A1, “Potentiation of cancer therapies by ZNF217 inhibition” (Regents of the University of California, priority 2002, published 2007).

How the values were obtained:
[1] = tested on: 184 HMEC and ZNF217 immortalized HMEC; assay: Doxorubicin induced cell death in ZNF217 transduced versus parental HMEC; assay type: cell-based; conditions: 100 ng/ml doxorubicin; p=0.0146
Description: In order to determine if ZNF217 could confer resistance to doxorubicin on primary mammary epithelial cells, the sensitivity of HMECs which had been previously immortalized by a ZNF217-HA expression construct (Nonet, G. H. et al., 2001, supra) were compared to parental 184 HMECs with finite life span. […] Thus, as well as promoting HMEC immortalization, ZNF217 expression protects HMEC against doxorubicin-induced apoptosis.

HBL100 cells = assay: Apoptosis assay, annexin V staining; assay type: cell-based, human; conditions: for annexin staining: HBL100
Method: (§1) 1.5×10^5 of Hela cells, ZNF217-GFP transfected HeLa cells, HBL100 cells and ZNF217-GFP transfected HBL100 cells were set up in six well plates and cultured as described above. One the second day, the cells were treated with 100 ng/ml doxirubicin for 16 hours. The cell culture supernatants and cells were collected and washed twice with PBS, resuspended in 100 μl of binding buffer (10 mM HEPS, 140 mM NaCl and 2.5 mM CaCl2, pH 7.4). 5 μl of Annexin V antibody (Alexa Fluor 633 from Molecular Probes) was added and the cells were incubated at room temperature for 15 minutes. After the incubation, 400 μl of binding buffer were added and cell samples were analyzed by flow cytometry. A 633-nm wavelength laser was used to measure the apoptotic cell population. For imaging 1.5×10^4 cells were seeded in 4 well cover glass slides (Fisher). Doxorubicin treating cells 16 hours later, the cells were washed with PBS twice and 200 μl of binding buffer were added, staining process was as same as above and in the meantime, 0.5 μM of DAPI were added to satin the cell nucleus. After staining, the cells were washed twice again with PBS, 400 μl of Binding buffer were added. The apoptotic cells were imaged in Seize con-focal image system.

[2] = tested on: HBL100 cells transfected with ZNF217-EGFP; assay: Apoptosis assay, annexin V staining; assay type: cell-based, human; conditions: for annexin staining: ZNF217-EGFP transfected HBL100
Method: as §1
ZNF217 silencing RNA (siRNA) constructs were introduced into HBL100 cells transfected with znf217 and the cells were subsequently treated with Doxorubicin.
The siRNA Dicer Generation kit from Gene Therapy System was used to generate a series of siRNAs. Approximately 30 different 22 bp siRNA sequences were generated, using the following primers: […]

[3] = tested on: MCF7, 600MPE and HBL100 breast cancer cell lines; assay: Sensitivity of breast cancer cell lines to doxorubicin (cell death)
[4] = increasing concentrations, in combination with doxorubicin
[5] = not also treated with doxorubicin

Compound	less cell death in ZNF217 transduced cells than in control non-transduced 184 HMEC [1] [fold]	cells stained with annexin (HBL100 cells; control HBL100 cells, doxorubicin treatment)	cells stained with annexin ([2]; ZNF217 transfected HBL100, doxorubicin treatment)	cell death upon exposure to doxorubicin ([3]; HBL100 compared with MCF7 and 600MPE)	resistance to doxorubicin of cell lines with high relative ZNF217 expression versus HBL100 ([3]; MCF7 and 600MPE versus HBL100, all wild type TP53)	annexin staining (HBL100 cells; [4])	annexin staining (HBL100 cells; [5])	cell death (HBL100 cells; HBL100 not transfected (FIG. 11), increasing concentrations, in combination with Doxorubicon)	cell death ([2]; HBL100 transfected with ZNF217-encoding constructs (FIG. 12), increasing concentrations, in combination with Doxorubicon)	annexin staining [2, 4]	annexin staining [2, 5]
COc1cccc2c1C(=O)c1c(O)c3c(c(O)c1C2=O)C[C@@](O)(C(=O)CO)C[C@@H]3O[C@H]1C[C@H](N)[C@H](O)[C@H](C)O1 [doxorubicin]	2.5	About 80%	Less than 40%	higher levels of cell death	three to five-fold more resistant						
CN1N=C(N)c2cn([C@@H]3O[C@H](COP(=O)(O)O)[C@@H](O)[C@H]3O)c3ncnc1c23 [triciribine phosphate]						increased annexin staining	did not display significant staining	increased cell death	increased cell death	increased annexin staining	did not display significant staining
